{"source": "patent US9255100B2", "about": "(BAYER INTELLECTUAL PROPERTY GMBH, priority 2010, dated 2016)", "molecular_target": "T1, N-terminally GST-tagged human full length recombinant Mps-1 kinase (Homo sapiens, UniProt P33981)", "T1 construct": "N-terminally GST-tagged human full length recombinant Mps-1 kinase; purchased Invitrogen, Karslruhe, Germany PV4071", "T1 sequence (P33981 1-857)": "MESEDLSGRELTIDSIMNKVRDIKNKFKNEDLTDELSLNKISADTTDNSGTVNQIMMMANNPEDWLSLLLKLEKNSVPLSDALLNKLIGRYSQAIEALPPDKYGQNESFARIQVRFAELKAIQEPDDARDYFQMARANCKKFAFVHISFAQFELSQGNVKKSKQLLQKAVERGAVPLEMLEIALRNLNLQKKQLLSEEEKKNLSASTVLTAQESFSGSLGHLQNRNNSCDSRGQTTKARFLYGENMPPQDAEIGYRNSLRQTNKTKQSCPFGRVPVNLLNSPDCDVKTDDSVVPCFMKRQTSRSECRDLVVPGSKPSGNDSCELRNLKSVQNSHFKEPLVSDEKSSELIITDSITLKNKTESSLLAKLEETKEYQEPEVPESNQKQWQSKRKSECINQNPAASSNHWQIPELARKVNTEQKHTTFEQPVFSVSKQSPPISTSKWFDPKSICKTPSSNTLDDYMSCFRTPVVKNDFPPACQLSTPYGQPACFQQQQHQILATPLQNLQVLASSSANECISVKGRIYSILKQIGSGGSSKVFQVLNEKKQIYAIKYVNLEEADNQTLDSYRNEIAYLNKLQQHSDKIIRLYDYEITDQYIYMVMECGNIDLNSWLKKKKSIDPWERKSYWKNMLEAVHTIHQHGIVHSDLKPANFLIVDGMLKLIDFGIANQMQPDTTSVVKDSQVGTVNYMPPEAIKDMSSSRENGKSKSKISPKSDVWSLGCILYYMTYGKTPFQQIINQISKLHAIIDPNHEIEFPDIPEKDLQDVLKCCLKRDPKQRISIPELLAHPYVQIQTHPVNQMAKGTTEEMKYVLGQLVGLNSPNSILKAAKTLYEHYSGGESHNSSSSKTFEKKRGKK", "test": "Mps-1 kinase assay (TR-FRET)", "type": "biochemical", "details": "Mps1 IC50 [nM], 10 μM ATP, 1 μM peptide substrate, 60 min at 22° C.", "how_it_was_run": "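GST-tagged full-length recombinant Mps-1 at about 1 nM final, adjusted per lot for linear range, phosphorylated a biotinylated peptide. Product bound Eu-anti-phospho(Ser/Thr) antibody over 1 h at 22° C and was read by TR-FRET to streptavidin-XLent. Compounds scored for kinase inhibition.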", "data": [{"compound": "Cc1cc(-c2cnc3c(NCC4CNC4)cc(Oc4cncc(F)c4)nn23)ccc1C(=O)NC1CC1", "note": "[Example 544, 4-{8-[(azetidin-3-ylmethyl)amino]-6-[(5-fluoropyridin-3-yl)oxy]imidazo[1,2-b]pyridazin-3-yl}-N-cyclopropyl-2-methylbenzamide]", "values": [{"measurement": "IC50", "result": 1.1, "unit": "nM"}]}, {"compound": "Cc1cc(-c2cnc3c(NC[C@@H]4CCCO4)cc(-c4ccnn4C)nn23)ccc1C(=O)NC1CC1", "note": "[Example 34, N-cyclopropyl-2-methyl-4-[6-(1-methyl-1H-pyrazol-5-yl)-8-{[(2S)-tetrahydrofuran-2-ylmethyl]amino}imidazo[1,2-b]pyridazin-3-yl]benzamide]", "values": [{"measurement": "IC50", "result": 2.4, "unit": "nM"}]}, {"compound": "Cc1cc(-c2cnc3c(NCC(C)(C)O)cc(Oc4cncnc4)nn23)ccc1C(=O)NC1CC1", "note": "[Example 265, N-cyclopropyl-4-{8-[(2-hydroxy-2-methylpropyl)amino]-6-(pyrimidin-5-yloxy)imidazo[1,2-b]pyridazin-3-yl}-2-methylbenzamide]", "values": [{"measurement": "IC50", "result": 0.9, "unit": "nM"}]}, {"compound": "Cc1cc(-c2cnc3c(NCC(C)(C)O)cc(-c4cncnc4)nn23)ccc1C(=O)NC1CC1", "note": "[Example 163, N-cyclopropyl-4-{8-[(2-hydroxy-2-methylpropyl)amino]-6-(pyrimidin-5-yl)imidazo[1,2-b]pyridazin-3-yl}-2-methylbenzamide]", "values": [{"measurement": "IC50", "result": 30.5, "unit": "nM"}]}, {"compound": "COc1cc(F)ccc1Nc1cc(NCCCC(F)(F)F)c2ncc(-c3ccc(C(=O)NC4CC4)c(C)c3)n2n1", "note": "[Example 457, N-cyclopropyl-4-{6-[(4-fluoro-2-methoxyphenyl)amino]-8-[(4,4,4-trifluorobutyl)amino]imidazo[1,2-b]pyridazin-3-yl}-2-methylbenzamide]", "values": [{"measurement": "IC50", "result": 5.4, "unit": "nM"}]}, {"compound": "CNc1cc(Oc2ccc(OC)c(F)c2)nn2c(-c3ccc(C(=O)NC4CC4)c(C)c3)cnc12", "note": "[Example 535, N-cyclopropyl-4-[6-(3-fluoro-4-methoxy-phenoxy)-8-(methyl-amino)imidazo[1,2-b]pyridazin-3-yl]-2-methylbenzamide]", "values": [{"measurement": "IC50", "result": 0.1, "unit": "nM"}]}, {"compound": "Cc1cc(-c2cnc3c(NCC4CCN(C)CC4)cc(Oc4cccnc4)nn23)ccc1C(=O)NC1CC1", "note": "[Example 527, N-cyclopropyl-2-methyl-4-[8-{[(1-methylpiperidin-4-yl)methyl]amino}-6-(pyridin-3-yloxy)imidazo [1,2-b]pyridazin-3-yl]benzamide]", "values": [{"measurement": "IC50", "result": 0.6, "unit": "nM"}]}, {"compound": "CC(C)CNc1cc(-c2ccc(S(C)(=O)=O)cc2)nn2c(-c3ccc(C(=O)NC4CC4)cc3)cnc12", "note": "[Example 142, N-cyclopropyl-4-{8-[(2-methylpropyl)amino]-6-[4-(methylsulfonyl)phenyl]imidazo[1,2-b]pyridazin-3-yl}benzamide]", "values": [{"measurement": "IC50", "result": 1.4, "unit": "nM"}]}, {"compound": "CC(C)CNc1cc(-c2ccc(C(=O)NC3CC3)cc2)nn2c(-c3ccc(C(=O)NC4CC4)cc3)cnc12", "note": "[Example 116, 4,4′-{8-[(2-Methylpropyl)amino]imidazo[1,2-b]pyridazine-3,6-diyl} bis(N-cyclopropylbenzamide)]", "values": [{"measurement": "IC50", "result": 4, "unit": "nM"}]}, {"compound": "COc1ccc(C)c(Nc2cc(NCC(C)(C)O)c3ncc(-c4ccc(C(=O)NC5CC5)c(C)c4)n3n2)c1", "note": "[Example 349, N-cyclopropyl-4-{8-[(2-hydroxy-2-methylpropyl)amino]-6-[(5-methoxy-2-methylphenyl)amino]imidazo[1,2-b]pyridazin-3-yl}-2-methylbenzamide]", "values": [{"measurement": "IC50", "result": 0.4, "unit": "nM"}]}, {"compound": "Cc1cc(-c2cnc3c(NCCC(F)(F)F)cc(Sc4cnccn4)nn23)ccc1C(=O)NC1CC1", "note": "[Example 420, N-cyclopropyl-2-methyl-4-{6-(pyrazin-2-ylsulfanyl)-8-[(3,3,3-trifluoropropyl)amino]imidazo[1,2-b]pyridazin-3-yl}benzamide]", "values": [{"measurement": "IC50", "result": 2.8, "unit": "nM"}]}, {"compound": "CCNC(=O)c1ccc(-c2cnc3c(NCCN4CCOCC4)cc(Oc4ccc(OC)cc4F)nn23)cc1C", "note": "[Example 591, N-ethyl-4-[6-(2-fluoro-4-methoxyphenoxy)-8-{[2-(morpholin-4-yl)ethyl]amino}imidazo[1,2-b]pyridazin-3-yl]-2-methylbenzamide]", "values": [{"measurement": "IC50", "result": 2.5, "unit": "nM"}]}, {"compound": "COC(=O)c1cc(F)ccc1-c1cc(NCC(C)(C)O)c2ncc(-c3ccc(C(=O)NC4CC4)c(C)c3)n2n1", "note": "[Example 279, 2-{3-[4-(cyclopropylcarbamoyl)-3-methylphenyl]-8-[(2-hydroxy-2-methylpropyl)amino]imidazo[1,2-b]pyridazin-6-yl}-5-fluoro-benzoic acid methyl ester]", "values": [{"measurement": "IC50", "result": 148, "unit": "nM"}]}, {"compound": "Cc1cc(-c2cnc3c(NCC(C)(C)N4CCOCC4)cc(Oc4cccc(F)c4)nn23)ccc1C(=O)NC1CC1", "note": "[Example 498, N-cyclopropyl-4-[6-(3-fluoro-phenoxy)-8-{[2-methyl-2-(morpholin-4-yl)propyl]amino}imidazo[1,2-b]pyridazin-3-yl]-2-methylbenzamide]", "values": [{"measurement": "IC50", "result": 0.3, "unit": "nM"}]}, {"compound": "CC(C)CNc1cc(-c2ccsc2)nn2c(-c3ccc(C(=O)NC4CC4)cc3)cnc12", "note": "[Example 122, N-cyclopropyl-4-{8-[(2-methylpropyl)amino]-6-(thiophen-3-yl)imidazo [1,2-b]pyridazin-3-yl} benzamide]", "values": [{"measurement": "IC50", "result": 2.9, "unit": "nM"}]}, {"compound": "Cc1cc(-c2cnc3c(NCC(C)(C)O)cc(Oc4ccc(OC(C)C)cc4)nn23)ccc1C(=O)NC1CC1", "note": "[Example 256, N-cyclopropyl-4-{8-[(2-hydroxy-2-methylpropyl)amino]-6-(4-isopropoxyphenoxy)imidazo[1,2-b]pyridazin-3-yl}-2-methylbenzamide]", "values": [{"measurement": "IC50", "result": 0.2, "unit": "nM"}]}, {"compound": "Cc1cc(-c2cnc3c(NCC(C)(C)O)cc(-c4ccc(F)cc4C)nn23)ccc1C(=O)NC1CC1", "note": "[Example 232, N-cyclopropyl-4-{6-(4-fluoro-2-methylphenyl)-8-[(2-hydroxy-2-methylpropyl)amino]imidazo[1,2-b]pyridazin-3-yl}-2-methylbenzamide]", "values": [{"measurement": "IC50", "result": 1, "unit": "nM"}]}, {"compound": "Cc1cc(-c2cnc3c(NCC4CC(=O)N(C)C4)cc(-c4ccccc4CO)nn23)ccc1C(=O)NC1CC1", "note": "(stereo not shown) [Example 344, N-cyclopropyl-4-(6-[2-(hydroxy-methyl)phenyl]-8-{[(1-methyl-5-oxo-pyrrolidin-3-yl)methyl]amino}imidazo[1,2-b]pyridazin-3-yl)-2-methyl-benzamide]", "values": [{"measurement": "IC50", "result": 23, "unit": "nM"}]}, {"compound": "Cc1cc(-c2cnc3c(NCCC(F)(F)F)cc(Sc4ccccc4O)nn23)ccc1C(=O)NC1CC1", "note": "[Example 224, N-cyclopropyl-4-{6-[(2-hydroxyphenyl)sulfanyl]-8-[(3,3,3-trifluoropropyl)amino]imidazo[1,2-b]pyridazin-3-yl}-2-methylbenzamide]", "values": [{"measurement": "IC50", "result": "< 0.1", "unit": "nM"}]}, {"compound": "CC(C)CNc1cc(-c2ccc(C(F)(F)F)cc2)nn2c(-c3ccc(C(=O)NC4CC4)cc3)cnc12", "note": "[Example 123, N-cyclopropyl-4-{8-[(2-methylpropyl)amino]-6-[4-(trifluoromethyl)phenyl]imidazo[1,2-b]pyridazin-3-yl}benzamide]", "values": [{"measurement": "IC50", "result": 7.6, "unit": "nM"}]}, {"compound": "Cc1cc(-c2cnc3c(NCCC(F)(F)F)cc(Nc4cccnc4)nn23)ccc1C(=O)NC1CC1", "note": "[Example 439, N-cyclopropyl-2-methyl-4-{6-(pyridin-3-ylamino)-8-[(3,3,3-trifluoropropyl)amino]imidazo[1,2-b]pyridazin-3-yl}benzamide]", "values": [{"measurement": "IC50", "result": 0.2, "unit": "nM"}]}, {"compound": "CNc1cc(Oc2cccc(F)c2F)nn2c(-c3ccc(C(=O)NC4CC4)c(C)c3)cnc12", "note": "[Example 528, N-cyclopropyl-4-[6-(2,3-difluorophenoxy)-8-(methylamino)imidazo[1,2-b]pyridazin-3-yl]-2-methylbenzamide]", "values": [{"measurement": "IC50", "result": 0.7, "unit": "nM"}]}]}
